Experimental findings from patent US12187705B2, “Heteroaryl-triazole and heteroaryl-tetrazole compounds as pesticides” (Bayer Aktiengesellschaft, priority 2018, dated 2025) are described below.

The structures appear in SMILES notation.

Type in all cases: in vivo
The subject of one test is Boophilus microplus. Put plainly: Boophilus microplus injection test. The settings on record: Rhipicephalus microplus, 168 h, 20 μg/animal, egg deposition after 7 days, read-out: efficacy (infertile eggs). An outline of the steps: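 Engorged adult female ticks, five per dose, received 1 μl of compound in DMSO injected into the abdomen and were kept in a climate chamber. Fertile egg deposition was checked after 7 days, with eggs of unclear fertility held until hatching at about 42 days. Efficacy 100% = all eggs infertile, 0% = all fertile.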

The next test deals with Myzus persicae. Put plainly: Myzus persicae spray test. The settings on record: in Brassica rapa, foliar, 120 h. In a few lines: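 Chinese cabbage leaf disks infested with all aphid instars were sprayed with compound diluted in water containing emulsifier (1000 ppm). Mortality (%) was scored after 5 days, 100% meaning all aphids killed.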
The subject of the next test is Tetranychus urticae. Put plainly: Tetranychus urticae spray test OP-resistant. The settings on record: Tetranychus urticae, foliar, 144 h, French bean leaf disks, after 6 days. How it is done:
Tetranychus urticae—Spray Test OP-Resistant
To produce a suitable preparation of active compound, 1 part by weight of active compound is mixed with the stated amount of solvents and is diluted with water, containing an emulsifier concentration of 1000 ppm, to the desired concentration. Further test concentrations are prepared by dilution with emulsifier containing water.
French bean (Phaseolus vulgaris) leaf disks infected with all instars of the two spotted spidermite (Tetranychus urticae), are sprayed with a preparation of the active ingredient of the desired concentration.
After 6 days mortality in % is determined. 100% means all spider mites have been killed and 0% means none of the spider mites have been killed.

For test [1], the system named is Culex quinquefasciatus strain P00. The experiment in a line: Culex quinquefasciatus test (CULXFA surface treatment & contact assay). The settings on record: 24 hours after contact, read-out: efficacy (mortality); for mortality at 4 mg/m2: surface concentration 4 mg/m^2, 30 minutes exposure; for mortality at 20 mg/m2: surface concentration 20 mg/m^2, 30 minutes exposure. In a few lines:
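Compound dissolved in acetone (2 mg/ml) with 2000 ppm rapeseed oil methyl ester, applied to glazed tile and dried. Adult strain P00 mosquitoes exposed to the surface for 30 minutes. Percent mortality scored 24 hours after contact.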

The next test deals with Diabrotica balteata. The experiment in a line: Diabrotica balteata spray test. The settings on record: Diabrotica balteata, 168 h; 160 μg/well, wheat seeds, after 7 days; read-out: efficacy (seedlings grown). In a few lines: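 Wheat seeds germinated 1 day on agar were sprayed with compound diluted in water with 1000 ppm emulsifier, then infested with 10-20 Diabrotica balteata larvae. Efficacy in % scored after 7 days: 100% = seedlings grown as untreated, uninfected control; 0% = no seedlings grown.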

Test [2] has as its system Anopheles funestus strain FUMOZ-R. The experiment in a line: Anopheles funestus test (ANPHFU surface treatment & contact assay). The settings on record: surface concentration 20 mg/m^2, 30 minutes exposure, 24 hours after contact, read-out: efficacy (mortality). In a few lines:
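Compound dissolved in acetone (2 mg/ml) with 2000 ppm rapeseed oil methyl ester, dried onto glazed tile; adult Anopheles funestus FUMOZ-R exposed for 30 minutes. Percent mortality scored 24 hours after contact.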

Test [3] deals with cattle ticks (Boophilus microplus) strane Parhurst, SP-resistant. Put plainly: Boophilus microplus dip test. To be noted: 100 ppm, egg deposition after 7 days. How it is done: Boophilus microplus—Dip Test
Test animal: cattle ticks (Boophilus microplus) strane Parhurst, SP-resistant
Solvent: dimethyl sulfoxide
To produce a suitable preparation of active compound, 10 mg of active compound are dissolved in 0.5 ml solvent, and the concentrate is diluted with water to the desired concentration.
This compound solution is pipetted into tubes. 8-10 engorged, adult, female cattle ticks (Boophilus microplus) are placed in perforated tubes. These tubes are immersed in the aqueous compound solution until the ticks are completely moistened. After the liquid has drained off, the ticks are transferred to a filter paper in a plastic tray and stored in a climate chamber.
After 7 days egg deposition of fertile eggs is monitored. Eggs where fertility is not visible are stored in a climate chamber till hatching after about 42 days. An efficacy of 100% means all eggs are infertile; 0% means all eggs are fertile.

Take `CCN(C(=O)c1cc(Cl)cc(S(C)(=O)=O)c1)C(C)c1ncnn1-c1ncccn1` (centres unmarked) [Example I-040, 3-chloro-N-ethyl-5-(methylsulfonyl)-N-{1-[1-(pyrimidin-2-yl)-1H-1,2,4-triazol-5-yl]ethyl}benzamide]: the pest or weed control at 0.02 mg with Boophilus microplus was determined as 100%. In addition, the mortality at 500 g/ha in the test with Myzus persicae came out at 90%. Besides, in the test with Tetranychus urticae, the mortality at 500 g/ha came out at 90%. In test [1], the mortality at 4 mg/m2 was in the range of 80 to 100% and the mortality at 20 mg/m2 is 80 to 100%. Besides, the pest or weed control at 160 µg/disc, 160 µg/well in the test on Diabrotica balteata amounted to 100%.
Consider `C[C@@H](NC(=O)c1cc(Cl)cc(S(=O)(=O)C2CC2)c1)c1ncnn1-c1ncccn1` [Example I-042], for which, in the test with Boophilus microplus, the pest or weed control at 0.02 mg is 100%. The mortality at 500 g/ha in the test on Myzus persicae and in the test on Tetranychus urticae was 90% each time. Further, the results for the mortality at 20 mg/m2 in test [2] and in test [1] were 85 to 100% and 80 to 100%, respectively. Moreover, the “efficacy (infertile eggs)” value in test [3] was found to be 100%. The mortality at 4 mg/m2 in test [1] lay in the range of 80 to 100%. In addition, the pest or weed control at 160 µg/disc, 160 µg/well in the test with Diabrotica balteata was 100%.

By mortality is commonly meant the percentage killed.
